Data as given in US9249147B2, “Tyrosine kinase inhibitors” (CHEMBRIDGE CORPORATION, priority 2008, dated 2016).
pIC50: −log10 of the molar value.

How the values were obtained:
Assay type in all cases: biochemical
ALK = ALK (Homo sapiens, UniProt Q9UM73); assay: ALK kinase assay (Kinase-Glo / AlphaScreen, purified NPM-ALK); set-up: fused to the complete intracytoplasmic portion of ALK containing the functional tyrosine kinase domain; 6xHis; made in house; host or cells: insect cells; the other entry of the earlier key: NPM1 (P06748, Nucleophosmin); conditions: Table 1; read-out: ALK IC50
Sequence of ALK (Q9UM73 with tags, fused parts or gaps): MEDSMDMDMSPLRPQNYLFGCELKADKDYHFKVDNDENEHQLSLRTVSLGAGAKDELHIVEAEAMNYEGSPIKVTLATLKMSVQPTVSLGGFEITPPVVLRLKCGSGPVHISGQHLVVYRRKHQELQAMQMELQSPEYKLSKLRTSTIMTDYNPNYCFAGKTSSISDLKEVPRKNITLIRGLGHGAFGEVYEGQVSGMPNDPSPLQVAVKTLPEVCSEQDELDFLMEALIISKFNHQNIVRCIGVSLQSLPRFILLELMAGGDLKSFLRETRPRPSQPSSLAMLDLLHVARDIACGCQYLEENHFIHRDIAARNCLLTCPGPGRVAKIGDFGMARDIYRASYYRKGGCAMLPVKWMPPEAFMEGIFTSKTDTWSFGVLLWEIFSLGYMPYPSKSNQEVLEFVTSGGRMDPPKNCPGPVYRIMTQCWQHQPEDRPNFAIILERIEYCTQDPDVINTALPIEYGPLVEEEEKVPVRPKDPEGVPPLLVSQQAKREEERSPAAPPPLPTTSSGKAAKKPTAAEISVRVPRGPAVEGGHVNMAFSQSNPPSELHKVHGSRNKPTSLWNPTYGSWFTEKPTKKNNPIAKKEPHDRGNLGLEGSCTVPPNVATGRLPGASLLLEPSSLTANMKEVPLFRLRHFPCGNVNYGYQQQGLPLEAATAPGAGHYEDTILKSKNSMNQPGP

IGF1R = target: T1, IGF1R (Homo sapiens, UniProt P08069); assay: IGF1R kinase assay; conditions: Table 1; read-out: IGF1R IC50
T1 construct: 6×His- or GST-tagged kinase domain fragments of the corresponding RTKs expressed in baculovirus system; host or cells: baculovirus system
T1 sequence (P08069 999-1274 limits assumed): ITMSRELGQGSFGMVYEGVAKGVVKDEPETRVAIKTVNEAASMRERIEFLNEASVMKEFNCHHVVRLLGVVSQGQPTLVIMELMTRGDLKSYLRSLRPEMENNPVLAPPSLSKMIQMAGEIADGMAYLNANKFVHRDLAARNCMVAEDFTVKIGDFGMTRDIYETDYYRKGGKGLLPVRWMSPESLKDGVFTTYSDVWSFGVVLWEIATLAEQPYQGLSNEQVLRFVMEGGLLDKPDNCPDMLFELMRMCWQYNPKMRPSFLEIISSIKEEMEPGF
Method: (§1) To determine inhibition of several tyrosine kinases, such as IGF1R, InsR, Alk, TrkA and Jak2, kinase assays are conducted using either Kinase-Glo (Promega) or AlphaScreen (PerkinElmer) kinase assay platforms. The Kinase-Glo Luminescent Kinase Assay is a homogeneous method for measuring kinase activity by determining the amount of ATP remaining after a kinase reaction. The luminescent signal is proportional to the amount of ATP and inversely proportional to the amount of kinase activity. Tyrosine kinase PT66 AlphaScreen Assay is a high-sensitivity homogeneous, anti-phosphotyrosine antibody-mediated luminescent proximity method measuring incorporation of phosphate in synthetic poly(Glu-Tyr) substrate. The kinase preparations used consist of purified recombinant, 6×His- or GST-tagged kinase domain fragments of the corresponding RTKs expressed in baculovirus system.
(§2) Compounds with a range of concentrations 40 μM, 20 μM, 10 μM, 5 μM, 2.5 μM, 1.25 μM, 0.625 μM, 0.3125 μM, 0.15625 μM and 0.078125 μM were incubated with NPM-ALK, which was produced in insect cells as a 6×HIS-tagged fusion protein and purified using nickel-charged resin chromatography, for 30 minutes at RT in the presence of 10 μM ATP and 7.0 ng biotinylated poly-GT. A 1:1 mixture of […] and donor beads was then added to the reaction and incubated for an additional 60 minutes at RT. The assay was conducted on a MultiPROBE liquid handling workstation (PerkinElmer) in a 384-well plate format with a total reaction volume of 40 μL per well. Working stocks of all compounds were dissolved in 100% DMSO and serial dilutions of the compounds were performed using kinase buffer (50 mM Tris-HCl (pH 7.5), 5 mM MgCl2, 5 mM MnCl2, 2 mM DTT (added freshly before use), 0.01% Tween-20) containing 5% DMSO. […] Data were collected as optical readings at 520-680 nm on a Fusion™ microplate analyzer (PerkinElmer), and IC50 and Ki values calculated using PRISM3.0 software (GraphPad Software, Inc., San Diego, Calif.). The same assay was also used with minor modifications to assess the IC50 and Ki values for selected compounds against five other tyrosine kinases (IRK, IGF1R, Flt3, Abl, Src), all of which were purchased from commercial vendors. PolyGT-Biotin was bought from CIS Biointernational Cat. #61GT0BLD; ATP—from Sigma Cat. # A7699; sodium orthovanadate—from Sigma Cat. #S-6508; phosphotyrosine (PT66) assay kit from PerkinElmer Cat. #6760602M; automated workstation tips (20 μL): PerkinElmer Cat. #6000657; and OptiPlate-384 (white)—from PerkinElmer Cat. #6007299.

IRK = target: T2, IRK (Homo sapiens, UniProt P06213); assay: IRK (insulin receptor kinase) assay; conditions: Table 1; read-out: IRK IC50
T2 construct: 6×His- or GST-tagged kinase domain fragments of the corresponding RTKs expressed in baculovirus system; host or cells: baculovirus system
T2 sequence (P06213 1023-1298 limits assumed): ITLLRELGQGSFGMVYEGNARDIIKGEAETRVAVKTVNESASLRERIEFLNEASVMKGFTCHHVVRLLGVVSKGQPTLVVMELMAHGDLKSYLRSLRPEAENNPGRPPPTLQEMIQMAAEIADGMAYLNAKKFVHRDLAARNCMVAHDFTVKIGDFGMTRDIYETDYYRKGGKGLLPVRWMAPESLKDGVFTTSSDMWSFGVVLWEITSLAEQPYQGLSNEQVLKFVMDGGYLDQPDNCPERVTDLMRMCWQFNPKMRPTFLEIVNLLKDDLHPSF
Method: as §1, §2

Structure (SMILES)	pIC50 (ALK)	pIC50 (IGF1R)	pIC50 (IRK)
CC(Cc1cccs1)Nc1cc[nH]c(=O)c1-c1nc2cc3c(cc2[nH]1)C(=O)N(C1CCN(C)CC1)C3=O (stereo not drawn)	6.00 to 6.60	< 6.00	< 6.00
C[C@H](Cc1cccs1)Nc1cc[nH]c(=O)c1-c1nc2cc3c(cc2[nH]1)C(=O)N(CCCN1CCCC1)C3=O	< 6.00	< 6.00	< 6.00
C[C@H](Cc1cccs1)Nc1cc[nH]c(=O)c1-c1nc2cc3c(cc2[nH]1)C(=O)N(CCCN1CCCC1)C3	< 6.00	< 6.00	6.00 to 6.60
C[C@H](Cc1cccs1)Nc1cc[nH]c(=O)c1-c1nc2c(Cl)c3c(cc2[nH]1)C(=O)N(C1CCN(C)CC1)C3=O	< 6.00	< 6.00	< 6.00
CC(Cc1cccs1)N(C)c1cc[nH]c(=O)c1-c1nc2cc3c(cc2[nH]1)C(=O)N(CCCN1CCCC1)C3 (stereo not drawn)	< 6.00	< 6.00	< 6.00
C[C@@H](Cc1cccs1)Nc1cc[nH]c(=O)c1-c1nc2cc3c(cc2[nH]1)C(=O)N(CCN1CCCC1)C3	6.00 to 6.60	6.00 to 6.60	6.60 to 7.00
C[C@@H](Cc1cccs1)Nc1cc[nH]c(=O)c1-c1nc2cc3c(cc2[nH]1)C(=O)N(CCCN1CCCC1)C3=O	6.60 to 7.00	< 6.00	–
C[C@@H](Cc1cccs1)Nc1cc[nH]c(=O)c1-c1nc2cc3c(cc2[nH]1)C(=O)N(CCCCN1CCCC1)C3	6.60 to 7.00	< 6.00	–
Cc1ccsc1C[C@H](C)Nc1cc[nH]c(=O)c1-c1nc2cc3c(cc2[nH]1)CN(CCN1CCC[C@@H]1C)C3=O	6.60 to 7.00	6.00 to 6.60	–
Cc1ccc(F)cc1C[C@H](C)Nc1cc[nH]c(=O)c1-c1nc2cc3c(cc2[nH]1)C(=O)N(CCN(C)C)C3=O	6.60 to 7.00	6.60 to 7.00	< 6.00
Cc1ccc(F)cc1C[C@H](C)Nc1cc[nH]c(=O)c1-c1nc2cc3c(cc2[nH]1)CN(CCN1CCOCC1)C3=O	6.60 to 7.00	6.60 to 7.00	< 6.00
COc1ccc(F)cc1C[C@H](C)Nc1cc[nH]c(=O)c1-c1nc2cc3c(cc2[nH]1)CN(CCN1CCOCC1)C3=O	6.60 to 7.00	6.60 to 7.00	< 6.00
C[C@@H](Cc1cc(F)ccc1Cl)Nc1cc[nH]c(=O)c1-c1nc2cc3c(cc2[nH]1)CN(CCN1CCCC1)C3=O	6.60 to 7.00	6.00 to 6.60	6.00 to 6.60
Cc1ccc(C(F)(F)F)cc1C[C@H](C)Nc1cc[nH]c(=O)c1-c1nc2cc3c(cc2[nH]1)CN(CCN(C)C)C3=O	6.00 to 6.60	6.60 to 7.00	6.00 to 6.60
Cc1ccc(N(C)C)cc1C[C@H](C)Nc1cc[nH]c(=O)c1-c1nc2cc3c(cc2[nH]1)CN(CCN1CCCC1)C3=O	< 6.00	< 6.00	< 6.00
Cc1ccc(C(F)(F)F)cc1C[C@H](C)Nc1cc[nH]c(=O)c1-c1nc2cc3c(cc2[nH]1)CN(CCN1CCCC1)C3=O	< 6.00	< 6.00	6.00 to 6.60
Cc1ccc(C(F)(F)F)cc1C[C@H](C)Nc1cc[nH]c(=O)c1-c1nc2cc3c(cc2[nH]1)CN(CCN1CCOCC1)C3=O	6.00 to 6.60	< 6.00	< 6.00
C[C@@H](Cc1ccccc1Cl)Nc1cc[nH]c(=O)c1-c1nc2cc3c(cc2[nH]1)CN(CCN1CCCC1)C3=O	6.00 to 6.60	< 6.00	6.60 to 7.00
Cc1ccc(Cl)cc1C[C@H](C)Nc1cc[nH]c(=O)c1-c1nc2cc3c(cc2[nH]1)CN(CCN1CCCC1)C3=O	6.00 to 6.60	< 6.00	6.60 to 7.00
COc1ccc(OC)c(C[C@H](C)Nc2cc[nH]c(=O)c2-c2nc3cc4c(cc3[nH]2)CN(CCN2CCCC2)C4=O)c1	6.60 to 7.00	< 6.00	6.00 to 6.60
CN1CCC(N2C(=O)c3cc4nc(-c5c(N[C@@H](CO)Cc6ccccc6)cc[nH]c5=O)[nH]c4cc3C2=O)CC1	6.60 to 7.00	< 6.00	< 6.00
C[C@@H](Cc1cccs1)Nc1cc[nH]c(=O)c1-c1nc2cc3c(cc2[nH]1)C(=O)N(CCCN1CCCC1)C3 [drawing 259]	6.60 to 7.00	6.00 to 6.60	6.60 to 7.00
CNCCN1Cc2cc3[nH]c(-c4c(N[C@@H](C)Cc5cc(F)ccc5C)cc[nH]c4=O)nc3cc2C1=O [drawing 348]	6.00 to 6.60	7.00 to 8.00	–

Results, then the molecule that gave them:

pIC50 (ALK)	pIC50 (IGF1R)	pIC50 (IRK)	Structure (SMILES)
6.60 to 7.00	< 6.00	< 6.00	CC(Cc1cccs1)Nc1cc[nH]c(=O)c1-c1nc2cc3c(cc2[nH]1)C(=O)N(CCCN1CCCC1)C3=O (stereo not drawn)
6.60 to 7.00	6.60 to 7.00	< 6.00	CC(Cc1ccccc1F)Nc1cc[nH]c(=O)c1-c1nc2cc3c(cc2[nH]1)C(=O)N(CCCN1CCCC1)C3 (stereo not drawn)
6.60 to 7.00	6.00 to 6.60	6.60 to 7.00	C[C@@H](Cc1cccs1)Nc1cc[nH]c(=O)c1-c1nc2cc3c(cc2[nH]1)C(=O)N(CCCN(C)C)C3
6.60 to 7.00	6.00 to 6.60	6.00 to 6.60	C[C@H](Nc1cc[nH]c(=O)c1-c1nc2cc3c(cc2[nH]1)C(=O)N(CCCN1CCCC1)C3)[C@H](O)c1ccccc1
6.60 to 7.00	6.60 to 7.00	6.00 to 6.60	C[C@@H](Cc1cccs1)Nc1cc[nH]c(=O)c1-c1nc2cc3c(cc2[nH]1)C(=O)N(C1CCN(CCS(C)(=O)=O)CC1)C3
6.60 to 7.00	6.00 to 6.60	6.60 to 7.00	CCS(=O)(=O)CCN1CCC(N2Cc3cc4nc(-c5c(N[C@@H](C)Cc6cccs6)cc[nH]c5=O)[nH]c4cc3C2=O)CC1
7.00 to 8.00	6.00 to 6.60	7.00 to 8.00	Cc1ccsc1C[C@H](C)Nc1cc[nH]c(=O)c1-c1nc2cc3c(cc2[nH]1)CN(CCN1CCCC1)C3=O
7.00 to 8.00	6.00 to 6.60	–	C[C@@H](Cc1sccc1C(F)(F)F)Nc1cc[nH]c(=O)c1-c1nc2cc3c(cc2[nH]1)CN(CCN1CCCC1)C3=O
7.00 to 8.00	6.60 to 7.00	6.60 to 7.00	C[C@@H](Cc1sccc1Cl)Nc1cc[nH]c(=O)c1-c1nc2cc3c(cc2[nH]1)CN(CCN1CCCC1)C3=O
7.00 to 8.00	6.00 to 6.60	6.60 to 7.00	Cc1ccsc1C[C@H](C)Nc1cc[nH]c(=O)c1-c1nc2cc3c(cc2[nH]1)CN(CCN1CCC[C@H]1C)C3=O
7.00 to 8.00	6.00 to 6.60	–	Cc1ccsc1C[C@H](C)Nc1cc[nH]c(=O)c1-c1nc2cc3c(cc2[nH]1)C(=O)N(CC(C)CN1CCCC1)C3 (stereo partly drawn)
7.00 to 8.00	< 6.00	6.00 to 6.60	Cc1cc(F)ccc1C[C@H](C)Nc1cc[nH]c(=O)c1-c1nc2cc3c(cc2[nH]1)C(=O)N(CCN1CCCC1)C3
7.00 to 8.00	6.00 to 6.60	< 6.00	Cc1ccc(F)cc1C[C@H](C)Nc1cc[nH]c(=O)c1-c1nc2cc3c(cc2[nH]1)CNC3=O
7.00 to 8.00	6.60 to 7.00	6.00 to 6.60	COc1ccc(F)cc1C[C@H](C)Nc1cc[nH]c(=O)c1-c1nc2cc3c(cc2[nH]1)CN(CCN1CCCC1)C3=O
7.00 to 8.00	6.60 to 7.00	6.00 to 6.60	COc1ccc(F)cc1C[C@H](C)Nc1cc[nH]c(=O)c1-c1nc2cc3c(cc2[nH]1)CN(CCN(C)C)C3=O
7.00 to 8.00	6.00 to 6.60	< 6.00	C[C@@H](Cc1cc(F)cc(F)c1F)Nc1cc[nH]c(=O)c1-c1nc2cc3c(cc2[nH]1)CN(CCN1CCOCC1)C3=O
7.00 to 8.00	< 6.00	6.00 to 6.60	COc1ccc(C)c(C[C@H](C)Nc2cc[nH]c(=O)c2-c2nc3cc4c(cc3[nH]2)CN(CCN2CCCC2)C4=O)c1
7.00 to 8.00	< 6.00	6.00 to 6.60	COc1cc(F)c(F)c(C[C@H](C)Nc2cc[nH]c(=O)c2-c2nc3cc4c(cc3[nH]2)CN(CCN2CCCC2)C4=O)c1OC
7.00 to 8.00	< 6.00	6.00 to 6.60	CCc1ccccc1C[C@H](C)Nc1cc[nH]c(=O)c1-c1nc2cc3c(cc2[nH]1)CN(CCN1CCCC1)C3=O
